This is an account of results in ChEMBL document CHEMBL1127583, “Discovery of a potent, peripherally selective trans-3,4-dimethyl-4-(3-hydroxyphenyl)piperidine opioid antagonist for the treatment of gastrointestinal motility disorders” (J Med Chem, 1994).

For experiment [1], the system named is Mus musculus. The experiment is described as follows: Tested for effective dose required to produce diarrhea in morphine dependent mice after subcutaneous administration. In kind it is functional.
The test system of experiment [2] is Mus musculus. In words: Tested for reduction in the analgesic response to morphine after subcutaneous administration of 1.25 mg/kg in abdominal stretching assay. In kind it is functional, Abdomen.
Experiment [3] addresses Kappa-type opioid receptor (Cavia porcellus) (UniProt P41144). The experiment is described as follows: Tested for binding affinity towards kappa receptor in presence of [3H]EKC radioligand at 10 nM.
The target is the same in experiment [4]. The experiment is described as follows: Tested for binding affinity towards kappa receptor in presence of [3H]EKC radioligand at 100 nM.
For experiment [5], the system named is Mus musculus. The experiment is described as follows: Tested for effective dose required to produce diarrhea in morphine dependent mice after peroral administration. In kind it is functional.
Experiment [6] deals with Mu-type opioid receptor (Rattus norvegicus) (UniProt P33535). In words: Tested for binding affinity towards mu receptor in presence of [3H]NAL radioligand at 10 nM.
For experiment [7] the target is unchanged. In words: Tested for binding affinity towards mu receptor in presence of [3H]NAL radioligand at 100 nM.
In experiment [8] the target is Mu-type opioid receptor (Rattus norvegicus, UniProt P33535). The experiment is described as follows: Tested for binding affinity towards mu receptor in presence of [3H]NAL radioligand.
In experiment [9] the target is T1, Kappa-type opioid receptor (Cavia porcellus, UniProt P41144). In words: Tested for binding affinity towards kappa receptor in presence of [3H]EKC radioligand.
In experiment [10] the target is Delta-type opioid receptor (Mus musculus, UniProt P32300). The experiment is described as follows: Tested for its antagonist activity against (DPDE)delta receptor in mouse vas deferens. The experiment is classed as functional, tissue-based. Conditions: read-out: pA2 (converted).
Experiment [11] addresses Delta-type opioid receptor (Rattus norvegicus, UniProt P33533). In words: Tested for binding affinity towards delta receptor in rat brain homogenates using [3H]D-Ala2-[…]-enkephalin as radioligand. The experiment is classed as tissue-based.
Experiment [12] concerns the target Mu-type opioid receptor (Cavia porcellus, UniProt P97266). The experiment is described as follows: Tested for its antagonist activity against mu receptor using DAMGO […] in isolated guinea pig ileum. The experiment is classed as functional, tissue-based. As to conditions: read-out: pA2 (converted).
Experiment [13] concerns the target T1, Kappa-type opioid receptor. In words: Tested for its antagonist activity against kappa receptor using U-69,593 […] in isolated guinea pig ileum. In kind it is functional, tissue-based. As to conditions: read-out: pA2 (converted).
Where [14] appears, read: Mus musculus, sc, read-out: ED50.
Setting [15] is: Mus musculus, po, read-out: ED50.

Chain of Mu-type opioid receptor (Rattus norvegicus, UniProt P33535) (P33535 whole entry): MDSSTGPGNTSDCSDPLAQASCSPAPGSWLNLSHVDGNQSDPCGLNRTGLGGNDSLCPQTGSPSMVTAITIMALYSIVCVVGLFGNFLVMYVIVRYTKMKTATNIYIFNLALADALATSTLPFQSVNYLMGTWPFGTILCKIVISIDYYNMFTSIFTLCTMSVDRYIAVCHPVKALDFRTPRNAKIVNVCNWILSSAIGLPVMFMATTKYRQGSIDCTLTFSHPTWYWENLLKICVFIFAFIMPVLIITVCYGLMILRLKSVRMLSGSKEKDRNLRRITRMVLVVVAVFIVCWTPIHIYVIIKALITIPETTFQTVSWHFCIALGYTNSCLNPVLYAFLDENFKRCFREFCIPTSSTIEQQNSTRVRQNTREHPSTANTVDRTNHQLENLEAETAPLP
Chain of Mu-type opioid receptor (Rattus norvegicus) (P33535 whole entry): as above
T1 sequence (P41144 whole entry): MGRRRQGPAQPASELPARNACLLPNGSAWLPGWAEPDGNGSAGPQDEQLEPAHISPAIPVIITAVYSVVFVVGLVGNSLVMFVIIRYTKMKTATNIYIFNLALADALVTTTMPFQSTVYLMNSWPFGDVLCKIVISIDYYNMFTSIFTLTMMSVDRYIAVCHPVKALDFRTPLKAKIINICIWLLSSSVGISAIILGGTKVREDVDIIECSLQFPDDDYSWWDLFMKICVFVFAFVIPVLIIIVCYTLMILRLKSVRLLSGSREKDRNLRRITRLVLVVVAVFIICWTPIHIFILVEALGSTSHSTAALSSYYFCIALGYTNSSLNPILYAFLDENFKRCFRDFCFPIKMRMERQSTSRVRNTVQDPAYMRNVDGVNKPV
Chain of Kappa-type opioid receptor (Cavia porcellus) (P41144 whole entry): as above
Chain of Delta-type opioid receptor (Rattus norvegicus, UniProt P33533) (P33533 whole entry): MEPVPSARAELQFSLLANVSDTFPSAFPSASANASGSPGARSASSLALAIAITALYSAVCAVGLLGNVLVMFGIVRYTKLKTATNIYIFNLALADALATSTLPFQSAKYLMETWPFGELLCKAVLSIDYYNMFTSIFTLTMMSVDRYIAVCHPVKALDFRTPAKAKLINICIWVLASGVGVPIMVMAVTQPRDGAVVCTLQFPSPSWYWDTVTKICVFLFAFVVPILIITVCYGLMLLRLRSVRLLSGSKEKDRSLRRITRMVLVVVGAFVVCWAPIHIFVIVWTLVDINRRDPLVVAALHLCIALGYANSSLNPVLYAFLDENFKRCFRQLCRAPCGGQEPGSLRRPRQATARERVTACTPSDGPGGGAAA
Chain of Delta-type opioid receptor (Mus musculus, UniProt P32300) (P32300 whole entry): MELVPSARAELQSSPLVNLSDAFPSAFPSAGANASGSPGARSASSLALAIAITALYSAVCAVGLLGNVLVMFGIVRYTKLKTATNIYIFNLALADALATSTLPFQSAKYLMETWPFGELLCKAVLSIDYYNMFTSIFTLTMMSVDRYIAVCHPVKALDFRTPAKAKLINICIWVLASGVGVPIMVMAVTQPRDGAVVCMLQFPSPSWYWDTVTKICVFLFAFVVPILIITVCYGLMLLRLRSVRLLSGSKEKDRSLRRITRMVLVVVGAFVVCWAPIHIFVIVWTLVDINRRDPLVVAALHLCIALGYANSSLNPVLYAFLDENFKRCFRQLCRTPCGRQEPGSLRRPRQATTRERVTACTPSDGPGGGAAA
Chain of Mu-type opioid receptor (Cavia porcellus, UniProt P97266) (P97266 whole entry): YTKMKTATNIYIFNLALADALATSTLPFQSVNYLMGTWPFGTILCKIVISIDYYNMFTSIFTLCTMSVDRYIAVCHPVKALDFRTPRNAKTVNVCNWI

As for `C=CCN1CC[C@]23c4c5ccc(O)c4O[C@H]2C(=O)CC[C@@]3(O)[C@H]1C5` [NALOXONE], in the experiment on Mus musculus [1] (setting [14]), the ED50 worked out at 0.05 mg/kg. This compound displayed an AD50 with Mus musculus [2] of 0.08 mg/kg.
Regarding `C[C@H]1CN(CC(Cc2ccccc2)C(=O)O)CC[C@@]1(C)c1cccc(O)c1` (stereo not given in full), the Specific Displacement in [3] is 0%; in experiment [4] it was 15%. Besides, the 50% effective dose (ED50) with Mus musculus [1] (setting [14]) worked out at 0.028 mg/kg.
For `CC(C)COC(=O)CNC(=O)[C@H](Cc1ccccc1)CN1CC[C@](C)(c2cccc(O)c2)[C@H](C)C1`, the Specific Displacement stood at 0% in [3], 34% in experiment [4], 57% in experiment [6] and 92% in [7]. Also, the median effective dose (ED50) is 0.37 mg/kg in the experiment on Mus musculus [1] (setting [14]) and over 10 mg/kg in the experiment with Mus musculus [5] (setting [15]). In the experiment on Mus musculus [2], this compound had an AD50 of over 40 mg/kg.
As for `CC(C)COC(=O)CNC(=O)[C@@H](Cc1ccccc1)CN1CC[C@@](C)(c2cccc(O)c2)[C@@H](C)C1`, the ED50 in the experiment on Mus musculus [1] stood at 0.044 mg/kg; with Mus musculus [5], 1.3 mg/kg. The inhibition constant (Ki) on Mu-type opioid receptor [8] was determined as 5.5 nM; in experiment [9] it was 23 nM. The compound further returned an AD50 with Mus musculus [2] (1.25 mg/kg) of 11.6 mg/kg.
As for `CC(C)COC(=O)CNC(=O)[C@H](Cc1ccccc1)CN1CC[C@@](C)(c2cccc(O)c2)[C@@H](C)C1`, the Specific Displacement in experiment [3] was 0%; in experiment [4] it was 0%; in [6] it was 11%; in experiment [7], 70%. The ED50 with Mus musculus [1] (setting [14]) was 0.5 mg/kg; with Mus musculus [5] (setting [15]), over 10 mg/kg. This compound also yielded an AD50 in the experiment on Mus musculus [2] of 29.6 mg/kg.
With `C[C@H]1CN(CC(Cc2ccccc2)C(=O)NCC(=O)O)CC[C@@]1(C)c1cccc(O)c1` (stereo not given in full), the Specific Displacement in experiment [3] turned out to be 23%; in experiment [4] it was 53%. For the same compound, the values for the ED50 with Mus musculus [1] (setting [14]) and in the experiment on Mus musculus [5] (setting [15]) were 0.028 mg/kg and 2 mg/kg, respectively. Also, in the experiment with Mus musculus [2], the AD50 was over 40 mg/kg.
Consider `CC1CN(C[C@H](Cc2ccccc2)C(=O)NCC(=O)O)CCC1(C)c1cccc(O)c1` (stereo not given in full), for which the Kb was 2 nM in experiment [10], 0.2 nM at Mu-type opioid receptor [12] and 15.8 nM in experiment [13]. The ED50 came out at 0.04 mg/kg with Mus musculus [1] (setting [14]) and 0.84 mg/kg with Mus musculus [5] (setting [15]). The inhibition constant Ki at Mu-type opioid receptor [8] came out at 0.77 nM; in [11], 4.4 nM; in experiment [9] it was 40 nM. For the same compound, the AD50 in the experiment with Mus musculus [2] worked out at 9 mg/kg.
For the compound `CC(C)COC(=O)CNC(=O)[C@@H](Cc1ccccc1)CN1CCC(C)(c2cccc(O)c2)C(C)C1` (single isomer, unassigned), the values for the Specific Displacement in experiment [3] and in experiment [4] were 4% and 55%, respectively. Moreover, the median effective dose (ED50) in the experiment on Mus musculus [1] stood at 0.02 mg/kg; with Mus musculus [5] (setting [15]) it was 1.7 mg/kg. Moreover, the Ki on Mu-type opioid receptor [8] was determined as 19.2 nM. The AD50 with Mus musculus [2] (1.25 mg/kg) came to 16.8 mg/kg.
With `CC(C)COC(=O)CNC(=O)C(Cc1ccccc1)CN1CCC(C)(c2cccc(O)c2)C(C)C1` (racemic), the Specific Displacement in [3] amounted to 7%; in experiment [4] it was 16%. For the same compound, the ED50 in the experiment with Mus musculus [1] (setting [14]) came out at 0.15 mg/kg; in the experiment with Mus musculus [5] (setting [15]) it was 1.1 mg/kg. In addition, at Mu-type opioid receptor [8], the Ki stood at 4 nM. Also, the AD50 in the experiment on Mus musculus [2] was over 40 mg/kg.
